Assays:
[1] = Singlet oxygen quantum yield (DMA chemical quenching); type: physicochemical; details: DMA quenching in DMF; 400-800 nm, 100 mW/cm^2
Method: The potential of the C14 porphyrin as a photosensitising agent was assessed on the basis of the quantum yield (φΔ) of singlet oxygen (^1O2) generation by the photoexcited triplet state of the porphyrin, namely the number of ^1O2 molecules generated per number of absorbed light photons. In the present study φΔ was measured by following the decrease in the fluorescence emission of 9,10-dimethyl-anthracene (DMA) upon its photosensitised conversion into the corresponding non-fluorescent 9,10-endoperoxide. […] In a typical experiment, a DMA solution (1.5 ml, initial absorbance around 1 at 380 nm) and porphyrin solution (1.5 ml, initial absorbance around 0.4 at 420 nm) in N,N-dimethyl-formamide (DMF) were placed in a quartz cuvette with a 1 cm optical path and irradiated with 400-800 nm light wavelengths (Teclas lamp, 100 mW cm-2) at 20° C.±2° C. under gentle magnetic stirring for different periods of time up to 20 min. The DMA fluorescence emission was recorded in the 380-550 nm wavelength range with excitation at 360 nm. The first-order rate constant of the photoprocess was obtained by plotting In F0/F as a function of the irradiation time t, where F0 and F represent the fluorescence intensity at time 0 and time t, respectively. The slope of the linear plot thus obtained allowed the rate constant of the photoprocess to be calculated. […]

[2] = system: A. aegypti larvae; experiment: Larvicidal efficacy of C14 porphyrin-loaded PFP; type: in vivo; details: 3 hours irradiation
Method: Food particles (70 mg) were added at the time of introduction of the larvae (n=50, see methods for details). Arithmetic means of percent dead, dying and living larvae after 3 hours irradiation (intensity 1.0-4.0 mW/cm^2). Error bars represent standard deviations, (n=3 replicates of 50 larvae each).
Trays containing 5 μM C14 porphyrin solution and 70 mg PFP (wherein PFP means powdered food pellet (PFP) with final particle diameter of 5-500 μm diameter obtained by crushing a standard food pellet for laboratory rodents, namely 4RF18 GLP (Mucedola Srl, Italy) using an electric blender and then sieving at mesh diameter 500 μm) were incubated at 28±2° C. for 5 days in the dark. The solution was then filtered using Whatman qualitative filter papers (Whatman International Ltd., UK). The eluted C14 solution was conserved, and the incubated PFP retained on the filter paper was washed with 10 ml distilled water before further use. Experimental groups were designed as follows: 1) filtered, C14-incubated PFP in spring water (group A); 2) C14 solution eluate, added with 70 mg fresh PFP (group B); 3) 5 μM C14 solution incubated without PFP for 5 days in the dark, added with 70 mg fresh PFP (group C); 4) freshly prepared 5 μM C14 solution, added with 70 mg PFP (group D); 5) spring water added with 70 mg fresh PFP (control group). Fifty larvae, fasted for 24 hours, were added to each tray and incubated in the dark for 12 hours. The treated or untreated PFP was added at the time of introduction of the larvae, in all the experimental groups. The trays were then exposed to a light intensity of 1.0-4.0 mW/cm^2 and dead, dying and living larvae were counted 1 to 3 hours after the beginning of the irradiation.

[3] = Adsorption and release of C14 on powdered food pellet (PFP); type: physicochemical; details: 70 mg PFP in 500 ml 5 μM C14, 28° C., dark
Method: C14 appeared to remain stably associated with food particles. Specifically, the C14 concentrations in the incubation buffers ranged from 0.01 μM (pH 7.0) to 0.024 μM (pH 9.5), corresponding to a release of just 2.14%-5.15% of the initial C14 amount.
A standard food pellet for laboratory rodents, namely 4RF18 GLP (Mucedola Srl, Italy), commonly used as mosquito larval food, was crushed using an electric blender and then sieved (mesh diameter 500 μm) to obtain powdered food pellet (PFP) with final particle diameter of 5-500 μm diameter. C14-PFP complexes were obtained by incubating PFP in C14 solutions. The loading of C14 on PFP and the dynamics of its release from the C14-PFP complexes in water were analysed by spectrophotometric quantification. Specifically, to evaluate the C14 binding rate on PFP, 70 mg of PFP were incubated in 500 ml of a 5 μM solution of C14, at 28° C. for 5 days, in the dark. The same C14 solution without PFP served as control. The amount of unbound porphyrin was then estimated by measuring the absorbance at 423 nm of the supernatant of aliquots of the solutions collected at various incubation times and centrifuged at 10,000 rpm for 10 minutes. […] The amount of porphyrin released in the media from the formulate complexes was measured as described above. […]

[4] = group B: C14 solution eluate with 70 mg fresh PFP

CCCCCCCCCCCCCC[n+]1ccc(-c2c3nc(c(-c4cc[n+](C)cc4)c4ccc([nH]4)c(-c4cc[n+](C)cc4)c4nc(c(-c5cc[n+](C)cc5)c5ccc2[nH]5)C=C4)C=C3)cc1.Cc1ccc(S(=O)(=O)[O-])cc1.Cc1ccc(S(=O)(=O)[O-])cc1.Cc1ccc(S(=O)(=O)[O-])cc1.Cc1ccc(S(=O)(=O)[O-])cc1 [C14, meso-tri(N-methyl-pyridyl), mono(N-tetradecyl-pyridyl)porphine]
quantum yield of ^1O2 photogeneration [1]: 0.46
dying larvae [2, 4]: 49.8%
mortality [2, 4]: 38.4%
mortality ([2]; group C: 5 μM C14 solution incubated 5 days in the dark without PFP, fresh PFP added): 78.2%
mortality ([2]; group D: freshly prepared 5 μM C14 solution with 70 mg PFP): 87.1%
C14 bound to the PFP particles ([3]; 24 hours): 82%
C14 bound to the PFP particles ([3]; 5 days): 92%
